The data set in a line: Solubility of processed ginseng extract (ginsenosides Rg3 and Rh2 by HPLC) in solvents and dissolution media. The data set is classed as physicochemical. Here is the method:
Processed ginseng extracts were used as natural product extracts of the present invention, and the processed ginseng extracts were prepared by the methods disclosed in Korean Patent Nos. 1595426 and 1966117. Among these, a processed ginseng extract containing 13 wt% of ginsenoside Rg3 and 7 wt% of ginsenoside Rh2 was used.
To investigate the solubility of the processed ginseng extract of the present invention, isopropanol, ethanol, water, and a pH 1.2 buffer, a pH 4.0 buffer, and a pH 6.8 buffer, which are dissolution media disclosed in the Korean Pharmacopoeia, were used as solvents. After 500 mg of the processed ginseng extract was added to 2 g of each solvent, stirring was performed at 50 rpm and 37°C for 18 hours, thereby obtaining each sample. Thereafter, a filtrate obtained by filtration of each sample through a 0.45-µm polyvinylidene fluoride (PVDF) syringe filter was analyzed by high performance liquid chromatography (HPLC) to investigate the solubility of ginsenosides Rg3 and Rh2 contained in the processed ginseng extract. The results are shown in Table 1 below. • HPLC Conditions were as follows: • Column: C18, 1.8 µm, 2.1x50 mm • Column Temperature: 50°C • Detector: UV 203 nm • Flow rate: 0.6 ml/min • Amount of injection: 2 µl • Run time: About 14 min • Mobile phase: distilled water: acetonitrile =57:43 (v/v) TABLE 1

The mark [1] stands for this setting: in water, a pH 1.2 buffer, or a pH 4.0 buffer.
The mark [2] stands for this setting: Ethanol, 500 mg processed ginseng extract in 2 g solvent, 50 rpm, 37°C, 18 hours.
[3] abbreviates: Isopropanol, 500 mg processed ginseng extract in 2 g solvent, 50 rpm, 37°C, 18 hours.
Setting [4] is: Water, 500 mg processed ginseng extract in 2 g solvent, 50 rpm, 37°C, 18 hours.
[5] abbreviates: pH 1.2 buffer, 500 mg processed ginseng extract in 2 g solvent, 50 rpm, 37°C, 18 hours.
The mark [6] stands for this setting: pH 4.0 buffer, 500 mg processed ginseng extract in 2 g solvent, 50 rpm, 37°C, 18 hours.
Setting [7] is: pH 6.8 buffer, 500 mg processed ginseng extract in 2 g solvent, 50 rpm, 37°C, 18 hours.

Take `CC(C)=CCC[C@](C)(O)[C@H]1CC[C@]2(C)[C@@H]1[C@H](O)C[C@@H]1[C@@]3(C)CC[C@H](O[C@@H]4O[C@H](CO)[C@@H](O)[C@H](O)[C@H]4O[C@@H]4O[C@H](CO)[C@@H](O)[C@H](O)[C@H]4O)C(C)(C)[C@@H]3CC[C@]12C` [ginsenoside Rg3]: the solubility entry under setting [1] was “less than 0.3 mg/g”.

As for `CC(C)=CCC[C@](C)(O)[C@H]1CC[C@]2(C)[C@@H]1[C@H](O)C[C@@H]1[C@@]3(C)CC[C@H](O[C@@H]4O[C@H](CO)[C@@H](O)[C@H](O)[C@H]4O[C@@H]4O[C@H](CO)[C@@H](O)[C@H](O)[C@H]4O)C(C)(C)[C@@H]3CC[C@]12C` [Ginsenoside Rg3 S-form, Ginsenoside Rg3], the solubility by setting is: under setting [2], 7.52 mg/g; under setting [3], 7.43 mg/g; under setting [4], 0.21 mg/g; under setting [5], 0.01 mg/g; under setting [6], 0.28 mg/g; under setting [7], 1.23 mg/g.

With `CC(C)=CCC[C@](C)(O)[C@H]1CC[C@]2(C)[C@@H]1[C@H](O)C[C@@H]1[C@@]3(C)CC[C@H](O[C@@H]4O[C@H](CO)[C@@H](O)[C@H](O)[C@H]4O)C(C)(C)[C@@H]3CC[C@]12C` [Ginsenoside Rh2 R-form, Ginsenoside Rh2], the solubility is listed as 2.55 mg/g under setting [2]; 2.47 mg/g under setting [3]; 0.00 mg/g under setting [4]; 0.00 mg/g under setting [5]; 0.00 mg/g under setting [6]; 0.09 mg/g under setting [7].

On to `CC(C)=CCC[C@](C)(O)[C@H]1CC[C@]2(C)[C@@H]1[C@H](O)C[C@@H]1[C@@]3(C)CC[C@H](O[C@@H]4O[C@H](CO)[C@@H](O)[C@H](O)[C@H]4O)C(C)(C)[C@@H]3CC[C@]12C` [ginsenoside Rh2], for which the solubility result under setting [1] is “less than 0.3 mg/g”.

As to `CC(C)=CCC[C@](C)(O)[C@H]1CC[C@]2(C)[C@@H]1[C@H](O)C[C@@H]1[C@@]3(C)CC[C@H](O[C@@H]4O[C@H](CO)[C@@H](O)[C@H](O)[C@H]4O[C@@H]4O[C@H](CO)[C@@H](O)[C@H](O)[C@H]4O)C(C)(C)[C@@H]3CC[C@]12C` [Ginsenoside Rg3 R-form, Ginsenoside Rg3], the solubility under setting [2] is 5.45 mg/g; the solubility under setting [3] was determined as 4.72 mg/g; the solubility under setting [4] was determined as 0.05 mg/g; the solubility under setting [5] is 0.01 mg/g; the solubility under setting [6] came to 0.05 mg/g; the solubility under setting [7] stood at 0.31 mg/g.

In turn, `CC(C)=CCC[C@](C)(O)[C@H]1CC[C@]2(C)[C@@H]1[C@H](O)C[C@@H]1[C@@]3(C)CC[C@H](O[C@@H]4O[C@H](CO)[C@@H](O)[C@H](O)[C@H]4O)C(C)(C)[C@@H]3CC[C@]12C` [Ginsenoside Rh2 S-form, Ginsenoside Rh2] returned a solubility under setting [2] of 3.96 mg/g; a solubility under setting [3] of 3.99 mg/g; a solubility under setting [4] of 0.10 mg/g; a solubility under setting [5] of 0.00 mg/g; a solubility under setting [6] of 0.13 mg/g; a solubility under setting [7] of 0.60 mg/g.
